Patent publication US10106565B2 (priority 2008, dated 2018)

Legend:
CD4 T cells = assay: Allogenic mixed leucocyte reaction (MLR) with activated monocytes; type: cell-based, human; conditions: 20 μM, 24 hours activation; PBL:monocyte ratios 4:1 to 100:1; vs alt- and class-monocytes
Description: For the functional experiments, freshly purified monocytes are cultured in 6-well plates. The cells are stimulated for 24 hours (immunophenotyping by flow cytometry analyses, MLR) or 96 hours (CD206 detection) with different stimuli or remain untreated (control). Dendrimer-activated monocytes (da-monocytes) are obtained with 20 μM of the dendrimer Gc1, alternatively-activated monocytes (alt-monocytes) with 10 U/mL recombinant human IL4 (Peprotech). The classical activation of monocytes is obtained by priming the cells over night (18 hours) with 100 U/mL of human recombinant IFN-γ (R&D Systems) and, after a washing step in PBS, by stimulation with 10 ng/mL LPS from E. coli 011/B4 strain (InvivoGen) for the remaining 6 hours or […].
MLR are performed in 96-well round bottom plates in a total volume of 200 μL in complete RPMI 1640 medium. […] The proliferation of the CD4 T cells is analyzed by measuring the cytoplasmic dilution of CFSE (as described in 5.1. Methods). […] Then, CFSE dilution is analyzed by flow cytometry to measure the proliferation of alloantigen-induced CD4 T cells. After gating for CD4 positive cells CFSE fluorescence intensities are analyzed, and the percentage of CD4 T cells which have proliferated during the MLR is taken into account. […] The overall differences are evaluated by analysis of variance test (ANOVA) with Sigma Stat software (Systat Software).

[1] = tested on: mice immunized against myelin oligodendrocyte protein peptide 35-55; assay: Experimental Autoimmune Encephalomyelitis (EAE) mouse model; type: in vivo; conditions: 45 days post-immunization, control about 4
Source text: Experimental Autoimmune Encephalomyelitis (EAE) is an inflammatory disease of the Central Nervous System (CNS) that shares clinical and immunopathological similarities with Multiple Sclerosis (MS). The model we have chosen is the classical model of active EAE induced by an immunization against myelin oligodendrocyte protein (MΦG) peptide 35-55 in mice. This leads to a chronic-progressive form of EAE resembling MS. Therefore, it is considered as a good model. Disease severity is scored on a clinical scale of 0 to 5 (0 being no detectable sign of EAE, 4 being tetraparalysis and 5 moribund or death). After MΦG-immunization, EAE scores for motor functions have been evaluated daily for 45 days for each animal. A preventive protocol (FIG. 17A) and a therapeutic protocol (FIG. 17B) have been tested. In both cases, mice are immunized with the MΦG peptide at Day 0 (first arrow of FIGS. 17A and 17B, corresponding to day 0 post-immunization). In the preventive protocol, intravenous administration of 10 mg/kg of dendrimer ABP started at Day 1 (FIG. 17A, second arrow, corresponding to 1 day post-immunization) and then every three days. In the therapeutic protocol, administration of ABP started once the disease is established at Day 18 (FIG. 17B, second arrow, corresponding to 18 days post-immunization), in the same conditions as the preventive protocol.

human monocytes [2] = assay: Differentiation of monocytes in osteoclasts (M-CSF and sRANK-Ligand); type: cell-based
Description: PBMC from adult healthy volunteers are prepared as described in example 1.
Monocytes are then purified by negative selection using a kit containing a mixture of mouse anti-human mAbs and superparamagnetic polystyrene beads coated with a human anti-mouse IgG mAbs, according to the manufacturer's instructions (Dynal). The cells obtained after the purification are >90% pure.
Pure monocytes are activated or not during 6 hours with 20 μM of dendrimer Gc1. After three washings, activated and not activated monocytes are cultured for 21 days in α-MEM complete medium, i.e. supplemented with 10% of heat inactivated fetal calf serum (FCS) (Invitrogen), 2 mM L-glutamine, 100 U/mL penicillin and 100 μg/mL streptomycin (Cambrex Bioscience) in presence or not of 20 μM of dendrimer Gc1. To generate osteoclasts, 50 ng/mL of M-CSF (PeproTech) and 30 ng/mL of sRANK-Ligand (PeproTech) are added to the culture medium. Each three days, half medium is changed and 25 ng/mL of M-CSF and 100 ng/mL of sRANK-Ligand are added. At day 21, the cells are fixed and stained with the leucocyte phosphatase acid kit according to the manufacturer's instructions (Sigma-Aldrich).

human monocytes [3] = assay: Quantitative RT-PCR of mRNA expression in dendrimer-activated monocytes; type: cell-based; conditions: 20 μM, 6 hours; da-monocytes vs untreated monocytes, 6 donors
Description: For genechip analysis, 10×10^6 monocytes from 3 donors (and from 3 more donors for quantitative PCR) are cultured in 25 cm^2 dishes. They are stimulated with 20 μM of dendrimer for 6 hours or remain untreated (control cells).
Total RNA are purified as described above, and 5 μg are used to synthesize single-strand cDNA using M-MLV reverse transcriptase RNase H Minus (Promega), according to the manufacturer's instructions. Quantitative RT-PCR is then performed using the Platinium SYBR Green qPCR SuperMix UDG (Invitrogen) with forward and reverse primers at a final concentration of 300 nM. The primers are designed using Primer Express software from mRNA sequences submitted to Ensembl data base, and are listed in FIG. 7. Quantification of the different mRNA is performed on a 7000 Sequence Detection System (Applied Biosystems). PCR amplification begins with 1 cycle of 50° C. for 2 minutes and 95° C. for 10 minutes, followed with 40 cycles of denaturation at 95° C. for 15 seconds and annealing/extension at 60° C. for 60 seconds. All experiments are performed in duplicate. For each donor, the relative expression is calculated as 2^−ΔΔCt where ΔΔCt is the difference between ΔCt of the sample and the ΔCt of the reference consisting of the control monocytes. ΔCt is the difference between the Ct of the target gene and the GAPDH gene. For statistical analysis, a one-tailed paired t test is performed comparing the ΔCt values for the da-monocytes and the corresponding control monocytes with Sigma Stat software (Systat Software).

With `CN(/N=C/c1ccc(OP2(Oc3ccc(/C=N/N(C)P(=S)(Oc4ccc(CCN(CP(=O)(O)O)CP(=O)(O)O)cc4)Oc4ccc(CCN(CP(=O)(O)O)CP(=O)(O)O)cc4)cc3)=NP(Oc3ccc(/C=N/N(C)P(=S)(Oc4ccc(CCN(CP(=O)(O)O)CP(=O)(O)O)cc4)Oc4ccc(CCN(CP(=O)(O)O)CP(=O)(O)O)cc4)cc3)(Oc3ccc(/C=N/N(C)P(=S)(Oc4ccc(CCN(CP(=O)(O)O)CP(=O)(O)O)cc4)Oc4ccc(CCN(CP(=O)(O)O)CP(=O)(O)O)cc4)cc3)=NP(Oc3ccc(/C=N/N(C)P(=S)(Oc4ccc(CCN(CP(=O)(O)O)CP(=O)(O)O)cc4)Oc4ccc(CCN(CP(=O)(O)O)CP(=O)(O)O)cc4)cc3)(c3ccc(/C=N/N(C)P(=S)(Oc4ccc(CCN(CP(=O)(O)O)CP(=O)(O)O)cc4)Oc4ccc(CCN(CP(=O)(O)O)CP(=O)(O)O)cc4)cc3)=N2)cc1)P(=S)(Oc1ccc(CCN(CP(=O)(O)O)CP(=O)(O)O)cc1)Oc1ccc(CCN(CP(=O)(O)O)CP(=O)(O)O)cc1` (centres unmarked) [Gc1] the “MLR activation (divided CD4+ T lymphocytes) by da-monocytes” value (CD4 T cells) was “lowest activating effect on MLR”, the “disease severity clinical score (EAE, scale 0 to 5)” value ([1]; preventive protocol: 10 mg/kg intravenous from Day 1, every three days) was “less than 1” and the “disease severity clinical score (EAE, scale 0 to 5)” value ([1]; therapeutic protocol: 10 mg/kg intravenous from Day 18, every three days) was “about 1”. For the same compound, the “differentiation of human monocytes in osteoclasts” value (human monocytes [2]; 20 μM added in the culture medium, 21 days) was “inhibits”, the “differentiation of human monocytes in osteoclasts” value (human monocytes [2]; monocytes pre-incubated with 20 μM during 6 hours, then rinsed) was “inhibition” and the “mRNA expression of CCL5” value (human monocytes [3]) was “significantly under-expressed”. The “mRNA expression of alternative activation genes MRC1, IL1 RN, IL10, CCL18 and CD23” value (human monocytes [3]) was “significantly up-regulated” and the “mRNA expression of classical activation genes IL1β, IL6 and IL12” value (human monocytes [3]) was “not significantly modified”.
